pEC50, pIC50: −log10 of the molar value.
Columns and labels:
[1] = tested on: IL-6; experiment: THP-1 AlphaLISA IL-6 cytokine inhibition assay (differentiated THP-1 cells); type: cell-based; conditions: LPS 24 hr then Nigericin 1 hour
Procedure: (§1) The cytokine inhibition profiles of compounds of formula (I) were determined in a differentiated THP-1 cell assay. All assays were performed in RPMI-1640 growth medium (Gibco), supplemented with 10% fetal bovine serum (FBS; Gibco), 1% penicillin-streptomycin and 1% sodium pyruvate unless specified otherwise. The IL-1p cytokine inhibition assay was run in a background of differentiated THP-1 cells as described below. All reagents described were from Sigma-Aldrich unless specified otherwise. Compounds were prepared as 10 mM DMSO stocks.
(§2) THP-1 cells were expanded as a suspension up to 80% confluence in appropriate growth medium. Cells were harvested, suspended, and treated with an appropriate concentration of phorbol 12-myristate 13-acetate (PMA) over a 72 hr period (37° C./5% CO2).
(§3) Following 72 hrs of THP-1 cell incubation, cellular medium was removed and replaced with fresh growth media containing 1% of FBS. Working concentrations of compounds were prepared separately in 10% FBS treated growth medium and pre-incubated with the cells for 30 minutes (37° C./5% CO2). Following the 30 minute compound pre-incubation, THP-1s were treated with an appropriate concentration of LPS and the cells were subsequently incubated for a 24 hr period (37° C./5% CO2). An appropriate final concentration of Nigericin was then dispensed into the THP-1 plates and incubated for 1 hour (37° C./5% CO2) before THP-1 supernatants were harvested and collected in separate polypropylene 96-well holding plates.
(§4) Reagents from an IL-1β and IL-6 commercial kit (Perkin Elmer) were prepared and run according to the manufacturer's instructions. Subsequently, fluorescence signal detection in a microplate reader was measured (EnVision® Multilabel Reader, Perkin Elmer).
(§5) Percentage inhibition was calculated per cytokine by normalising the sample data to the high and low controls used within each plate (+/−LPS respectively). Percentage inhibition was then plotted against compound concentration and the 50% inhibitory concentration (IC50) was determined from the resultant concentration-response curve.

[2] = tested on: NRF2; experiment: NRF2 activation assay (DiscoverX PathHunter NRF2 translocation kit, U2OS cells); type: cell-based; conditions: 6 hours
Procedure: Biological Example 2—NRF2 Activation Assay
Measuring Compound Activation Effects on the Anti-Inflammatory Transcription Factor NRF2 in DiscoverX PathHunter NRF2 Translocation Kit
Potency and efficacy of compounds of formula (I) against the target of interest to activate NRF2 (nuclear factor erythroid 2-related factor 2) were determined using the PathHunter NRF2 translocation kit (DiscoverX). The NRF2 translocation assay was run using an engineered recombinant cell line, utilising enzyme fragment complementation to determine activation of the Keap1-NRF2 protein complex and subsequent translocation of NRF2 into the nucleus. Enzyme activity was quantified using a chemiluminescent substrate consumed following the formation of a functional enzyme upon PK-tagged NRF2 translocation into the nucleus.
Additionally, a defined concentration of DMF was used as the ‘High’ control to normalise test compound activation responses to.
U2OS PathHunter eXpress cells were thawed from frozen prior to plating. Following plating, U2OS cells were incubated for 24 hrs (37° C./5% CO2) in commercial kit provided cell medium.
Following 24 hrs of incubation, plated U2OS cells were directly treated with an appropriate final concentration of compound. […]
Following compound treatment, the U2OS plates were incubated for a further 6 hours (37° C./5% CO2) before detection reagent from the PathHunter NRF2 commercial kit was prepared and added to test plates according to the manufacturer's instructions. Subsequently, the luminescence signal detection was measured in a microplate reader (PHERAstar®, BMG Labtech).
Percentage activation was calculated by normalising the sample data to the high and low controls used within each plate (+/−DMF). Percentage activation/response was then plotted against compound concentration and the 50% activation concentration ([…]) was determined from the plotted concentration-response curve.

[3] = tested on: cryo-preserved hepatocytes; experiment: Hepatocyte stability assay, mouse cryopreserved hepatocytes; type: in vitro ADME; conditions: Mouse hepatocytes, 10 μM, 60 min
Excerpt: (§6) Biological Example 3—Hepatocyte Stability Assay
(§7) Defrosted cryo-preserved hepatocytes (viability >70%) were used to determine the metabolic stability of a compound via calculation of intrinsic clearance (CIint; a measure of the removal of a compound from the liver in the absence of blood flow and cell binding). Clearance data are particularly important for in vitro work as they can be used in combination with in vivo data to predict the half-life and oral bioavailability of a drug.
(§8) The metabolic stability in hepatocytes assay involves a time-dependent reaction using both positive and negative controls. The cells were pre-incubated at 37° C. and spiked with test compound (and positive control); samples taken at pre-determined time intervals were analysed to monitor the change in concentration of the initial drug compound over 60 minutes. A buffer incubation reaction (with no hepatocytes present) acted as a negative control and two cocktail solutions, containing compounds with known high and low clearance values (verapamil/7-hydroxycoumarin and propranolol/diltiazem), acted as positive controls. • 1. The assay was run with a cell concentration of 0.5×10^6 cells/mL in Leibovitz buffer. • 2. All compounds and controls were run in duplicate. • 3. Compound concentration was 10 μM. • 4. All compounds and controls were incubated with both cells and buffer to show turnover was due to hepatic metabolism. • 5. All wells on the incubation plate had 326.7 μL of either cells or buffer added. • 6. Prior to assay, cell and buffer-only incubation plates were preincubated for 10 mins at 37° C. • 7. The assay was initiated by adding compounds, 3.3 μL of 1 mM in 10% DMSO-90% Buffer; final DMSO concentration is 0.1%. • 8. Samples were taken at regular timepoints (0, 5, 10, 20, 40, 60 min) until 60 mins. • 9. Sample volume was 40 μL and was added to 160 μL of crash solvent (acetonitrile with internal standard) and stored on ice. • 10. At the end of the assay, the crash plates were centrifuged at 3500 rpm for 20 mins at 4° C. • 11. 80 μL of clear supernatant was removed and mixed with 80 μL of deionised water before being analysed by LC-MS/MS.
(§9) Raw LC-MS/MS data was exported to, and analysed in, Microsoft Excel for determination of intrinsic clearance. The percentage remaining of a compound was monitored using the peak area of the initial concentration as 100%. Intrinsic clearance and half-life values were calculated using a graph of the natural log of percentage remaining versus the time of reaction in minutes. Half-life (min) and intrinsic clearance (CIint in μL min^−1 10^−6 cells) values were calculated using the gradient of the graph (the elimination rate constant, k) and Equations 1 and 2.

[4] = tested on: IL-1β; experiment: THP-1 AlphaLISA IL-1β cytokine inhibition assay (differentiated THP-1 cells); type: cell-based; conditions: LPS 24 hr then Nigericin 1 hour
Procedure: Biological Example 1—THP-1 AlphaLISA IL-1β
Measuring Inhibitory Effects on IL-1, Cytokine Output from THP-1s
as §1, §2, §3, §4, §5

[5] = tested on: cryo-preserved hepatocytes; experiment: Hepatocyte stability assay, human cryopreserved hepatocytes; type: in vitro ADME; conditions: Human hepatocytes, 10 μM, 60 min; numeric values
Excerpt: as §6, §7, §8, §9

[6] = Hepatocyte stability assay, mouse cryopreserved hepatocytes; type: in vitro ADME; conditions: cryopreserved hepatocytes; Mouse hepatocytes, 10 μM, 60 min; class symbols; read-out: T½
Excerpt: as §6, §7, §8, §9

[7] = Hepatocyte stability assay, human cryopreserved hepatocytes; type: in vitro ADME; conditions: cryopreserved hepatocytes; Human hepatocytes, 10 μM, 60 min; class symbols; read-out: T½
Excerpt: as §6, §7, §8, §9

[8] = Homo sapiens, normalised to DMF high control, class symbols

| Compound | pIC50 ([1]; Homo sapiens, class symbols) | pEC50 ([2]; Homo sapiens, class symbols) | half-life at 10 μM [6] [min] | Clint ([3]; class symbols) | pIC50 ([4]; Homo sapiens, class symbols) | half-life at 10 μM [7] [min] | pIC50 ([1]; numeric values) | NRF2 activation Emax ([2]; normalised to DMF high control, numeric values) [%] | pEC50 ([2]; numeric values) | Clint ([3]; numeric values) [μL min^−1 10^−6 cells] | T½ ([3]; numeric values) [min] | pIC50 ([4]; numeric values) | Clint [5] [μL min^−1 10^−6 cells] | T½ [5] [min] | Emax [2, 8] [%] |
| --- | --- | --- | --- | --- | --- | --- | --- | --- | --- | --- | --- | --- | --- | --- | --- |
| C=C(CC(=O)OCCCCCCCC)C(=O)O [4-octyl itaconate, reference compound] | – | – | – | – | – | – | 4.60 | 165 | 4.66 | 351 | 4 | 4.48 | 401 | 4 | – |
| C=C(Cc1nc(C2(c3ccc(C(F)(F)F)cc3)CC2)no1)C(=O)O[C@H](CC(=O)O)C(F)(F)F [Example 7, (R)-4,4,4-trifluoro-3-((2-((3-(1-(4-(trifluoromethyl)phenyl)cyclopropyl)-1,2,4-oxadiazol-5-yl)methyl)acryloyl)oxy)butanoic acid] | > 5.30 | > 5.30 | ≤ 4 | + (+ means ≥351) | > 5.30 | 5 to 59 | – | – | – | – | – | – | – | – | 3 to 100 |
| C=C(Cc1nc(C2(c3ccc(C(F)(F)F)cc3)CC2)no1)C(=O)O[C@@H](CC(=O)O)C(F)(F)F [Example 8, (S)-4,4,4-trifluoro-3-((2-((3-(1-(4-(trifluoromethyl)phenyl)cyclopropyl)-1,2,4-oxadiazol-5-yl)methyl)acryloyl)oxy)butanoic acid] | > 5.30 | > 5.30 | ≤ 4 | + (+ means ≥351) | > 5.30 | 5 to 59 | – | – | – | – | – | – | – | – | 135 to 165 |
| C=C(Cc1nc(Cc2ccc(CCCC)cc2)no1)C(=O)O[C@@H](CC(=O)O)C(F)(F)F [Example 10, (S)-3-((2-((3-(4-butylbenzyl)-1,2,4-oxadiazol-5-yl)methyl)acryloyl)oxy)-4,4,4-trifluorobutanoic acid] | > 5.30 | > 5.30 | ≤ 4 | + (+ means ≥351) | > 5.30 | < 5 | – | – | – | – | – | – | – | – | 135 to 165 |

The next lines start with results.

| pIC50 ([1]; Homo sapiens, class symbols) | pEC50 ([2]; Homo sapiens, class symbols) | half-life at 10 μM [6] [min] | Clint ([3]; class symbols) | pIC50 ([4]; Homo sapiens, class symbols) | half-life at 10 μM [7] [min] | Compound | pIC50 ([1]; numeric values) | NRF2 activation Emax ([2]; normalised to DMF high control, numeric values) [%] | pEC50 ([2]; numeric values) | Clint ([3]; numeric values) [μL min^−1 10^−6 cells] | T½ ([3]; numeric values) [min] | pIC50 ([4]; numeric values) | Clint [5] [μL min^−1 10^−6 cells] | T½ [5] [min] | Emax [2, 8] [%] |
| --- | --- | --- | --- | --- | --- | --- | --- | --- | --- | --- | --- | --- | --- | --- | --- |
| > 5.30 | > 5.30 | ≤ 4 | + (+ means ≥351) | > 5.30 | 5 to 59 | C=C(Cc1nc(Cc2ccc(CCCC)cc2)no1)C(=O)OCC(=O)O [Example 13, 2-((2-((3-(4-butylbenzyl)-1,2,4-oxadiazol-5-yl)methyl)acryloyl)oxy)acetic acid] | – | – | – | – | – | – | – | – | 166 to 250 |
| > 5.30 | > 5.30 | ≤ 4 | + (+ means ≥351) | > 5.30 | 5 to 59 | C=C(Cc1nc(Cc2ccc(CCCC)cc2)no1)C(=O)OCCc1nnn[nH]1 [Example 14, 2-(1H-tetrazol-5-yl)ethyl 2-((3-(4-butylbenzyl)-1,2,4-oxadiazol-5-yl)methyl)acrylate] | – | – | – | – | – | – | – | – | 135 to 165 |
| > 5.30 | > 5.30 | ≤ 4 | + (+ means ≥351) | > 5.30 | 5 to 59 | C=C(Cc1nc(Cc2ccc(CCCC)cc2)no1)C(=O)OCc1nnn[nH]1 [Example 16, (1H-tetrazol-5-yl)methyl 2-((3-(4-butylbenzyl)-1,2,4-oxadiazol-5-yl)methyl)acrylate] | – | – | – | – | – | – | – | – | 135 to 165 |
| > 5.30 | 5.00 to 5.30 | 5 to 11 | ++ (++ means 95-350) | > 5.30 | 60 to 100 | C=C(Cc1nc(C2(c3ccc(Br)cc3)CC2)no1)C(=O)OCC(=O)O [Example 18, 2-((2-((3-(1-(4-bromophenyl)cyclopropyl)-1,2,4-oxadiazol-5-yl)methyl)acryloyl)oxy)acetic acid] | – | – | – | – | – | – | – | – | 166 to 250 |
| > 5.30 | 5.00 to 5.30 | 5 to 11 | ++ (++ means 95-350) | > 5.30 | 5 to 59 | C=C(Cc1nc(C2(c3ccc(OC(F)(F)F)cc3)CC2)no1)C(=O)OCC(=O)O [Example 19, 2-((2-((3-(1-(4-(trifluoromethoxy)phenyl)cyclopropyl)-1,2,4-oxadiazol-5-yl)methyl)acryloyl)oxy)acetic acid] | – | – | – | – | – | – | – | – | 166 to 250 |
| > 5.30 | > 5.30 | ≤ 4 | + (+ means ≥351) | > 5.30 | 5 to 59 | C=C(Cc1nc(C2(c3ccc(SC(F)(F)F)cc3)CC2)no1)C(=O)OCC(=O)O [Example 22, 2-((2-((3-(1-(4-((trifluoromethyl)thio)phenyl)cyclopropyl)-1,2,4-oxadiazol-5-yl)methyl)acryloyl)oxy)acetic acid] | – | – | – | – | – | – | – | – | 135 to 165 |
